Experimental data taken from patent US20070128217A1 (priority 2003, published 2007).

Tests used:
[1] = test system: control sera (pooled serum of ten healthy LUMC hospital workers; commercial negative donor pooled serum from the Dutch bloodbank); format: binding, human; parameters: Binding of Control serum LUMC to linear peptides / Binding of Control serum Blood-bank to linear peptides / Binding of Control serum LUMC to looped peptides / Binding of Control Serum Blood-Bank to Looped peptides / Binding of Control serum LUMC to linear peptides of the protein M of SARS-CoV Urbani / Binding of Control serum Blood-bank to linear peptides of the protein M of SARS-CoV Urbani / Binding of Control serum LUMC to looped peptides of the protein M of SARS-CoV Urbani / Binding of Control Serum Blood-Bank to Looped peptides of the protein M of SARS-CoV Urbani: unit not given here
[2] = test system: rabbit serum obtained by immunizing a rabbit with the SARS-CoV strain Frankfurt 1; format: binding; parameters: Binding of a rabbit serum to linear peptides / Binding of a rabbit serum to looped peptides / Rabbit serum linear peptides / Rabbit serum looped peptides / Binding of a rabbit serum to linear peptides of protein N of SARS-CoV Urbani (Rabbit serum linear peptides) / Binding of a rabbit serum to looped/cyclic peptides of protein N of SARS-CoV Urbani (Rabbit serum looped peptides): unit not given here
[3] = test system: antibodies in sera from SARS patients (sera 1a, 1b, 2, 6, 37, 62, London, SARS-yellow, SARS-green); format: binding, human; parameters: Binding of serum 6 to linear peptides of protein X1 of SARS-CoV Urbani / Binding of serum 37 to linear peptides of protein X1 of SARS-CoV Urbani / Binding of serum 6 to looped/cyclic peptide (PEPSCAN-ELISA) / Binding of serum 37 to looped/cyclic peptide (PEPSCAN-ELISA) / Binding of serum 37 to looped/cyclic peptides of protein X1 of SARS-CoV Urbani / Binding of serum 6 to linear peptides of protein X2 / Binding of serum 37 to linear peptides of protein X2 / Binding of serum 37 to looped/cyclic peptides of protein X2 of SARS-CoV Urbani / Binding of serum 6 to linear peptides of protein M of SARS-CoV Urbani / Binding of serum 37 to linear peptides of protein M of SARS-CoV Urbani / Binding of serum 6 to looped/cyclic peptides of protein M of SARS-CoV Urbani / Binding of serum 37 to looped/cyclic peptides of protein M of SARS-CoV Urbani / Binding of serum 6 to linear peptides of protein X3 of SARS-CoV Urbani / Binding of serum 37 to linear peptides of protein X3 of SARS-CoV Urbani / Binding of serum 37 to looped/cyclic peptides of protein X3 of SARS-CoV Urbani / Binding of serum 6 to linear peptides of protein X4 of SARS-CoV Urbani / Binding of serum 37 to linear peptides of protein X4 of SARS-CoV Urbani / Binding of serum 37 to looped/cyclic peptides of protein X4 of SARS-CoV Urbani / Binding of serum 6 to linear peptides of protein X5 of SARS-CoV Urbani / Binding of serum 37 to linear peptides of protein X5 of SARS-CoV Urbani / Binding of serum 37 to looped/cyclic peptides of protein X5 of SARS-CoV Urbani / Binding of serum 6 to linear peptides of protein N of SARS-CoV Urbani / Binding of serum 37 to linear peptides of protein N of SARS-CoV Urbani / Binding of serum 6 to linear peptide (PEPSCAN-ELISA) / Binding of serum 1a to looped/cyclic peptides of protein N of SARS-CoV Urbani / Binding of serum 1b to looped/cyclic peptides of protein N of SARS-CoV Urbani / Binding of serum 2 to looped/cyclic peptides of protein N of SARS-CoV Urbani / Binding of serum 6 to looped/cyclic peptides of protein N of SARS-CoV Urbani / Binding of serum 37 to looped/cyclic peptides of protein N of SARS-CoV Urbani / Binding of serum 62 to looped/cyclic peptides of protein N of SARS-CoV Urbani / Binding of serum London to looped/cyclic peptides of protein N of SARS-CoV Urbani / Binding of serum SARS-green to looped/cyclic peptides of protein N of SARS-CoV Urbani: unit not given here
[4] = test system: recombinant human anti-SARS-CoV antibody 03-018; format: binding; parameters: Binding of antibody 03-018 to linear peptides of the N protein of SARS-CoV Urbani / Binding of antibody 03-018 to looped/cyclic peptides of the N protein of SARS-CoV Urbani: unit not given here

Sequence	Binding of a rabbit serum to linear peptides of protein N of SARS-CoV Urbani (Rabbit serum linear peptides) [2]	Binding of a rabbit serum to looped/cyclic peptides of protein N of SARS-CoV Urbani (Rabbit serum looped peptides) [2]	Binding of serum 1a to linear peptides of protein N of SARS-CoV Urbani [3]	Binding of serum 1a to looped/cyclic peptides of protein N of SARS-CoV Urbani [3]	Binding of serum 1b to linear peptides of protein N of SARS-CoV Urbani [3]	Binding of serum 1b to looped/cyclic peptides of protein N of SARS-CoV Urbani [3]	Binding of serum 2 to linear peptides of protein N of SARS-CoV Urbani [3]	Binding of serum 2 to looped/cyclic peptides of protein N of SARS-CoV Urbani [3]	Binding of serum 6 to linear peptides of protein N of SARS-CoV Urbani [3]	Binding of serum 6 to looped/cyclic peptides of protein N of SARS-CoV Urbani [3]	Binding of serum 37 to linear peptides of protein N of SARS-CoV Urbani [3]	Binding of serum 37 to looped/cyclic peptides of protein N of SARS-CoV Urbani [3]	Binding of serum 62 to linear peptides of protein N of SARS-CoV Urbani [3]	Binding of serum 62 to looped/cyclic peptides of protein N of SARS-CoV Urbani [3]	Binding of serum London to linear peptides of protein N of SARS-CoV Urbani [3]	Binding of serum London to looped/cyclic peptides of protein N of SARS-CoV Urbani [3]	Binding of serum SARS-green to linear peptides of protein N of SARS-CoV Urbani [3]	Binding of serum SARS-green to looped/cyclic peptides of protein N of SARS-CoV Urbani [3]	Binding of serum SARS-yellow to linear peptides of protein N of SARS-CoV Urbani [3]	Binding of serum SARS-yellow to looped/cyclic peptides of protein N of SARS-CoV Urbani [3]	further results
MDDFSRQLQNSMSGA	0.2	0.4	0.2	0.4	0.1	0.1	0.3	0.4	0.2	0.1	0.8	0.4	0.7	0.4	0.8	0.3	0.6	0.3	0.7	0.2	Control Serum Blood-Bank Looped peptides [1]: 0.5; Control serum Blood-bank linear peptides [1]: 1.0; Control serum LUMC linear peptides [1]: 0.7; Control serum LUMC looped peptides [1]: 0.5; Binding of antibody 03-018 to linear peptides of the N protein of SARS-CoV Urbani [4]: 0.2; Binding of antibody 03-018 to looped/cyclic peptides of the N protein of SARS-CoV Urbani [4]: 0.2
NKEGIVWVATEGALN	0.1	0.2	0.3	0.3	0.1	0.2	0.2	0.4	0.2	0.2	0.7	0.6	0.6	0.4	0.4	0.3	0.4	0.3	0.9	0.4	Binding of Control Serum Blood-Bank to Looped peptides [1]: 0.6; Binding of Control serum Blood-bank to linear peptides [1]: 0.7; Binding of Control serum LUMC to linear peptides [1]: 0.7; Binding of Control serum LUMC to looped peptides [1]: 0.6; Binding of antibody 03-018 to linear peptides of the N protein of SARS-CoV Urbani [4]: 0.1; Binding of antibody 03-018 to looped/cyclic peptides of the N protein of SARS-CoV Urbani [4]: 0.2
